The text below walks through data of article PMC10522709, “Rational design and characterization of cell-selective antimicrobial peptides based on a bioactive peptide from Crocodylus siamensis hemoglobin” (Scientific Reports, 2023).

Ends that are not written are not given here. Bounds are passed on as bounds.

Series [1] relates to Escherichia coli (ATCC 25922). It counts as cell-based. Particulars: ATCC 25922, 18 h. How it is done: (§1) Broth microdilution assays were performed as reported previously. In short, the bacteria including Escherichia coli (ATCC 25922), Klebsiella pneumoniae (ATCC 27736), Pseudomonas aeruginosa (ATCC 27853), Bacillus subtilis (ATCC 6633), Staphylococcus aureus (ATCC 25923) and Staphylococcus epidermidis (ATCC 12228) were grown in Nutrient broth to mid-log phase at 37 °C. The bacterial suspension (50 μL, concentration of 1 × 10^6 CFU/mL) was loaded into a well with serially diluted peptide (50 µL, final concentrations ranging from 0–200 μg/mL) in a sterile 96-well plate and incubated at 37 °C for 18 h. The optical density (OD) at 600 nm was measured using a microplate reader (ALLSHENG, Zhejiang, China) in order to determine the growth of the bacteria. The inhibition was estimated using the formula; %inhibition=OD600ofcontrol-OD600ofsample/OD600ofcontrol-OD600ofblank×100 where minimal inhibitory concentration (MIC) is defined as the minimum concentration that inhibited 90% of bacterial growth.

In series [2] the test system is Klebsiella pneumoniae (ATCC 27736). The class given is cell-based. As to conditions: ATCC 27736, 18 h. As to the method: as §1
Series [3] has as its system Pseudomonas aeruginosa (ATCC 27853). The class given is cell-based. Particulars: ATCC 27853, 18 h. How it is done: as §1
The subject of series [4] is Staphylococcus epidermidis (ATCC 12228). The class given is cell-based. Particulars: ATCC 12228, 18 h. As to the method:
as §1

The subject of series [5] is human erythrocytes. The class given is cell-based. Particulars: red cells of human, 1 h. How it is done: Human whole blood was obtained from Blood Transfusion Center Faculty of Medicine Khon Kaen University (ethical approval number HE601010). Fresh human erythrocytes were carefully mixed with PBS (1:3) and centrifuged at 1000 × g for 2 min. The supernatant was discarded and the cell pellet was resuspended to 2% w/v in PBS. 100 µL of the resuspended erythrocytes were incubated with the peptide (10 µL, final concentrations ranging from 12.5 to 100 μg/mL, two-fold serial dilution) at 37 °C for 1 h. After the treatment, the plate was centrifuged and the supernatant was taken to determine the optical density at 415 nm using a microplate reader (ALLSHENG, Zhejiang, China). The positive control for this assay was the addition of Triton X-100 (1% v/v), which causes 100% hemolysis. The negative control was cells treated with PBS buffer only. The hemolysis activity was estimated using the equation: %hemolysis=OD415ofsample/OD415ofTritonX-100treatedcontrol×100

In series [6] the test system is E. coli (ATCC25922). Description: Time-killing kinetics assay. The class given is cell-based, Escherichia coli. As to the method:
The time-killing kinetics of peptide was determined as described previously by Yaraksa et al.[16] In short, E. coli (ATCC25922) and S. epidermidis (ATCC12228) cells grown overnight were diluted in the Nutrient broth to a concentration of 1 × 10^6 CFU/mL. The diluted bacterial suspension (50 µL) was incubated with the peptide solution (50 µL, final concentration = 1 × MIC or 2 × MIC) at 37 °C. 10 µL of the mixture was taken at regular time intervals (0, 15, 30, 60, 180, 360, 540 and 720 min for 1 × MIC and 0, 30, 60, 180, 360, 720, 1440, 2160 and 2880 min for 2 × MIC), diluted and cultured on nutrient agar plates for 24 h. Bacterial cells were then counted and a graph of the log CFU/mL against incubation time was plotted to evaluate the rate at which peptides kill bacterial cells.

By MIC is commonly meant the least concentration at which growth counts as inhibited. As to IKHWKKVWKHAKKVL [IL15.3], the MIC in series [1] worked out at 4 µg/mL; in series [2], 10 µg/mL; in series [3], 10 µg/mL; in series [4], 9 µg/mL. The “Hemolysis concentration50 (HC50)” value in series [5] is more than 2000 µg/mL. For the same sequence, the “time to inhibit the growth kinetic rate” value in series [6] (1 × MIC, 37 °C, 1 × 10^6 CFU/mL, colony count) is on record as not above 60 min. In series [6] (1 × MIC, 37 °C, colony count), the “time to completely stop growth” value worked out at 180 min. Besides, the “time to begin to inhibit growth kinetic rate” value in series [6] (2 × MIC, 37 °C, colony count) is recorded as not above 30 min. Also, in series [6] (2 × MIC, 37 °C, colony count), the “time to fully kill the cells” value was not above 180 min. In series [6] (2 × MIC, after 48 h), the regrowth of cells result is “did not allow the cells to regrow”.
